Assay results reported in patent publication US20060240014A1, “Methods and compounds for the treatment of vascular stenosis” (Beth Israel Deaconess Medical Center, priority 2003, published 2006).
Counter-ions that a name gives are not always drawn.

Test system: human aortic vascular smooth muscle cells (HASOM cells)
Experiment: hPDGF-BB induced migration of human aortic vascular smooth muscle cells (Boyden chamber)
Assay type: cell-based
Settings: 20 ng/ml hPDGF-BB, 48 hours drug pre-incubation, 12 hours migration, dose dependent (FIG. 1)
Procedure: Drug concentrations for G are in ng/mL and for R are in pg/mL. The first lane has no PDGF added and the first two lanes have no drug compounds added. The results are expressed as means±S.E.M. of triplicate readings.
In vitro studies were performed to examine the dose response of Gleevec and rapamycin on human aortic vascular smooth muscle cells (HASOM cells). Cell migration was measured using a 24-well Boyden-chamber (Corning Costar Corp, Cambridge, Mass.). […] These membranes were coated with 0.1% gelatin for eight hours, then aspirated and allowed to dry for two hours. The cells were allowed to grow to 70% confluence and then treated with media containing 1% fetal calf serum and drug compounds (Gleevec alone, rapamycin alone and Gleevec and rapamycin together at the concentrations indicated in FIG. 1) for 48 hours prior to the migration assay. […] The cells were harvested in 0.05% trypsin, resuspended in M-199 media, and seeded on the coated membrane at a concentration of 4000 cells per well with Gleevec and/or rapamycin. The M-199 media containing 0.5% BSA and 20 ng/ml human PDGF-B (hPDGF-BB) was placed in the bottom Boyden chamber. Cells were incubated in 5% CO2 at 37° C. for 12 hours and the cells lying on the upper surface of the membrane were scraped. […] Cell migration was quantified by counting the cells in five random high-power fields on the lower surface of the membrane. […]

Cc1ccc(NC(=O)c2ccc(CN3CCN(C)CC3)cc2)cc1Nc1nccc(-c2cccnc2)n1 [Gleevec, imatinib mesylate]
inhibition of PDGF induced migration of HASOM cells: potently inhibited
